Reference: patent US20220047566A1, “LONG ACTING IN-SITU FORMING/GELLING COMPOSITIONS” (Humanwell Pharmaceutical US, priority 2020, published 2022)
Where a name gives a salt, the structure may show the parent alone.

Test system: skin incision
Assay: Mini-pig skin incision model, Von Frey test
Assay type: in vivo
Conditions: subcutaneous into both sides of incision
Method: Mini-pig skin incision model was used to test the anesthetic efficacy of some formulations. Mini pig was used in this model due to the similarities of their skin to humans. Mini pigs (9-12 kg) were randomly assigned for test groups. Under isoflurane anesthesia and sterile surgical conditions, a 6 cm long incision was made through skin in the rear left flank. The test drugs were administered subcutaneously into both sides of incision. The wound was then closed by continuous suture. After surgery the mini pig received antibiotic amoxicillin injection for 3 days as wound care. The efficacy of test drugs was evaluated by Von Frey test. At desired time point, an electrical automatic Von Frey was used to apply force about 0.5 cm to the incision. If operator observed the contraction of skin/muscle, or the applied force was over 100 g, the operator stopped the test and record the read of applied force. The response baseline of all mini pigs was tested and the pain threshold was set to the middle of baseline and 100 g. If the response force was higher than pain threshold value then there was anesthesia efficacy, vice versa.

## CCCCN1CCCC[C@H]1C(=O)Nc1c(C)cccc1C [levobupivacaine HCl]
  duration of anesthesia efficacy: about 4 hours
